For 29 compounds, IC50 results are on record in the Kinase Knowledgebase extract (Sharma et al. 2016).

The experiment concerns the target CDK2 (human) (UniProt P24941). Briefly: Cell-Based Assay.

`Cc1[nH]nc2c1N=C(c1ccccc1Cl)c1cc([N+](=O)[O-])ccc1N2`: the IC50 is 0.01 to 1 µM (hct 116), 0.01 to 1 µM (mda-mb-435) and 0.01 to 1 µM (sw480). As for `O=[N+]([O-])c1ccc2c(c1)C(c1ccccc1)=Nc1c[nH]nc1N2`, the IC50 (hct 116) is 10 to 30 µM. `O=[N+]([O-])c1ccc2c(c1)C(c1ccccc1Cl)=Nc1c(n[nH]c1-c1ccncc1)N2` showed an IC50 (hct 116) of 10 to 30 µM and an IC50 (sw480) of 10 to 30 µM. In turn, `CSc1ccc(-c2[nH]nc3c2N=C(c2ccccc2Cl)c2cc([N+](=O)[O-])ccc2N3)cc1` yielded an IC50 (hct 116) of 10 to 30 µM. Under “mda-mb-435”, `O=[N+]([O-])c1ccc2c(c1)C(c1ccccc1Cl)=Nc1c(n[nH]c1-c1nccs1)N2` came in with an IC50 of 10 to 30 µM. As to `O=[N+]([O-])c1ccc2c(c1)C(c1ccccc1Cl)=Nc1c(n[nH]c1-c1ccc(OC(F)(F)F)cc1)N2`, the 50% inhibitory concentration (IC50) (hct 116) was 10 to 30 µM. For the compound `Cc1[nH]nc2c1N=C(c1ccccc1F)c1cc(C(=O)NCCO)ccc1N2`, the IC50 is, setting by setting: (mda-mb-435) 1.1 to 9.99 µM; (sw480) 0.01 to 1 µM. The compound `O=[N+]([O-])c1ccc2c(c1)C(c1ccccc1Cl)=Nc1c(n[nH]c1-c1cc[nH]n1)N2` gave an IC50 (mda-mb-435) of 1.1 to 9.99 µM. Regarding `CCCc1[nH]nc2c1N=C(c1ccccc1Cl)c1cc([N+](=O)[O-])ccc1N2`, the IC50 is 10 to 30 µM (hct 116), 10 to 30 µM (mda-mb-435) and 10 to 30 µM (sw480).

In the case of `CC(=O)Nc1ccc2c(c1)C(c1ccccc1Cl)=Nc1c(n[nH]c1C)N2`, the IC50 is, setting by setting: (mda-mb-435) 0.01 to 1 µM; (sw480) 0.01 to 1 µM. With `Cc1[nH]nc2c1N=C(c1ccccc1Cl)c1ccccc1N2`, the IC50 runs as follows: (mda-mb-435) 1.1 to 9.99 µM; (sw480) 1.1 to 9.99 µM. Where the note is “sw480”, `Cc1[nH]nc2c1N=C(c1ccccc1)c1cc(Br)ccc1N2` came in with an IC50 of 10 to 30 µM. As for `CCOC(=O)c1ccc2c(c1)C(c1ccccc1F)=Nc1c(n[nH]c1C)N2`, the IC50 runs as follows: (hct 116) 1.1 to 9.99 µM; (mda-mb-435) 1.1 to 9.99 µM; (sw480) 1.1 to 9.99 µM. Take `NNC(=O)c1[nH]nc2c1N=C(c1ccccc1Cl)c1cc([N+](=O)[O-])ccc1N2`: the IC50 (hct 116) fell in the range of 1.1 to 9.99 µM and the IC50 (sw480) is 10 to 30 µM. In turn, `N#Cc1[nH]nc2c1N=C(c1ccccc1Cl)c1cc([N+](=O)[O-])ccc1N2` yielded an IC50 (mda-mb-435) of 10 to 30 µM. `O=[N+]([O-])c1ccc2c(c1)C(c1ccccc1Cl)=Nc1c(n[nH]c1-c1cccc3c1OCO3)N2` gave an IC50 (hct 116) of 10 to 30 µM. For `NC(=O)c1ccc2c(c1)C(c1ccccc1F)=Nc1c[nH]nc1N2`, the IC50 fell in the range of 1.1 to 9.99 µM (hct 116) and 1.1 to 9.99 µM (sw480). Regarding `Cc1[nH]nc2c1N=C(c1ccccc1Cl)c1cc(NS(=O)(=O)N3CCOCC3)ccc1N2`, the IC50 runs as follows: (mda-mb-435) 1.1 to 9.99 µM; (sw480) 1.1 to 9.99 µM. `Cc1[nH]nc2c1N=C(c1ccccc1F)c1cc(Cl)ccc1N2`: under “sw480”, the IC50 lay within 1.1 to 9.99 µM. The same measure, in the same setting: the figure for `Cc1[nH]nc2c1N=C(c1ccccc1F)c1cc(I)ccc1N2` is 1.1 to 9.99 µM. As for `COc1cc(O)ccc1-c1[nH]nc2c1N=C(c1ccccc1Cl)c1cc([N+](=O)[O-])ccc1N2`, the IC50 (hct 116) was in the range of 10 to 30 µM. For `Cc1[nH]nc2c1N=C(c1ccccc1F)c1cc(C(=O)N3CCOCC3)ccc1N2`, the IC50 fell in the range of 1.1 to 9.99 µM (mda-mb-435) and 0.01 to 1 µM (sw480). As for `Cc1[nH]nc2c1N=C(c1ccccc1C(F)(F)F)c1cc([N+](=O)[O-])ccc1N2`, for the setting “sw480”, the IC50 lay in the range of 0.01 to 1 µM.

For the compound `C=Cc1[nH]nc2c1N=C(c1ccccc1Cl)c1cc([N+](=O)[O-])ccc1N2`, the IC50 (mda-mb-435) was 0.01 to 1 µM. Consider `Cc1[nH]nc2c1N=C(c1ccccc1Cl)c1cc(Cl)ccc1N2`, for which the IC50 reads like this: (mda-mb-435) 1.1 to 9.99 µM; (sw480) 1.1 to 9.99 µM. As for `CC(C)c1[nH]nc2c1N=C(c1ccccc1Cl)c1cc([N+](=O)[O-])ccc1N2`, the IC50 runs as follows: (hct 116) 1.1 to 9.99 µM; (mda-mb-435) 0.01 to 1 µM; (sw480) 0.01 to 1 µM. In the case of `O=[N+]([O-])c1ccc2c(c1)C(c1ccccc1Cl)=Nc1c(n[nH]c1-c1ccc[nH]1)N2`, the IC50 by setting is: (hct 116) 1.1 to 9.99 µM; (sw480) 1.1 to 9.99 µM. As for `Clc1ccccc1C1=Nc2c[nH]nc2Nc2ccccc21`, the IC50 lay in the range of 10 to 30 µM (hct 116) and 10 to 30 µM (sw480).

On to `Cc1[nH]nc2c1N=C(c1ccccc1)c1cc(Cl)ccc1N2`, for which the IC50 (mda-mb-435) lay in the range of 1.1 to 9.99 µM and the IC50 (sw480) lay within 1.1 to 9.99 µM.

A word on the IC50: it is the midpoint of a concentration-inhibition curve. High values mean weaker potency, low ones greater potency.
